Measured values as given in ChEMBL document CHEMBL1201862, “PubChem BioAssay data set” (2004).
One block for each molecule: values may come before it. Activity calls are given as the source filed them.

Key:
[1] = biological target: T1, Heat shock protein HSP 90-alpha (Homo sapiens, UniProt P07900); assay type: functional, organism-based
[2] = biological target: Runt-related transcription factor 1/Core-binding factor subunit beta (Homo sapiens, UniProt Q01196+Q13951); experiment: disruptors of Runt domain/CBFb-SMMHC interaction – biochemical, FRET, Cerulean-Runt, Venus-CBFb-SMMHC, uHTS, […] (AID 1434); assay type: protein assay;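 also: partner is the CBFb-SMMHC leukemia fusion protein rather than wild-type CBFb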
[3] = biological target: Eukaryotic translation initiation factor 4E (Mus musculus, UniProt P63073); experiment: blockers of eIF4G binding by eIF4E – biochemical, TR-FRET, dose response (AID 855); assay type: functional;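 also: potency for disrupting eIF4E binding to eIF4GI seen as loss of FRET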
[4] = biological target: T2, RNA-binding protein pos-1 (Caenorhabditis elegans, UniProt G5EF15); experiment: disruptors of C. elegans POS-1 RNA interaction – biochemical, fluorescence polarization, dose response (AID 1964);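 also: purified POS-1 fused to maltose binding protein made in E. coli; potency of compounds blocking POS-1 binding to fluorescent RNA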
T2 sequence (G5EF15 whole entry): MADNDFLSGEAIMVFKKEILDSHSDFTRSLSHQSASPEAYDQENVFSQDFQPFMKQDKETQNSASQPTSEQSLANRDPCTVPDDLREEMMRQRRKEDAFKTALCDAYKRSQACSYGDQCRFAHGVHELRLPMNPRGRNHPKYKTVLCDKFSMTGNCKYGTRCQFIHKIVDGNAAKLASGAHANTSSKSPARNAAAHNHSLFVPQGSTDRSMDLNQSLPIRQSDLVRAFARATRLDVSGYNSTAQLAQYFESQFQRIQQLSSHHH

[5] = biological target: Glyceraldehyde-3-phosphate dehydrogenase (Homo sapiens, UniProt P04406)
[6] = biological target: T3, Dual specificity protein phosphatase 6 (Rattus norvegicus, UniProt Q64346); experiment: inhibition of rat DUSP6 enzyme activity – biochemical, in vitro, primary screen (AID 425)
T3 sequence (Q64346 whole entry): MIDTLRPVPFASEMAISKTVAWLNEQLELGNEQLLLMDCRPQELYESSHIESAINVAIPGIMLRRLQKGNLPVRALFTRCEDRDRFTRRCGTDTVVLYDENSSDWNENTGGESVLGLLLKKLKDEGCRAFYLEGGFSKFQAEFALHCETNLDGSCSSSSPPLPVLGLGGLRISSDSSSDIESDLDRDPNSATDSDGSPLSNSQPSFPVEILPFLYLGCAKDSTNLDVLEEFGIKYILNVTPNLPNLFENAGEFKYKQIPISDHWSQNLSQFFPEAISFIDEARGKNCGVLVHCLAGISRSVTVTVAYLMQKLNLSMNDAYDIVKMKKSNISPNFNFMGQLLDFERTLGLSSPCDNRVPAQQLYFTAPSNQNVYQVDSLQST

[7] = biological target: T4, Ubiquitin-conjugating enzyme E2 N (Homo sapiens, UniProt P61088); assay type: functional;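 also: Dose-response confirmation in a TR-FRET assay detecting UBC13-driven polyubiquitin chain formation, inhibition measured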
T4 sequence (P61088 whole entry): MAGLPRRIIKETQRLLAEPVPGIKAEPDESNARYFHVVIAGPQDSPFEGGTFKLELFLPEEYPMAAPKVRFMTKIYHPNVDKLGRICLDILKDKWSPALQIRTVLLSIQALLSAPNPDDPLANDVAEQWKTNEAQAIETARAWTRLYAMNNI

[8] = biological target: Ribosomal protein S6 kinase alpha-3 (Homo sapiens, UniProt P51812); assay type: functional;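 also: measured within a kinome-wide profiling panel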
[9] = biological target: Receptor-type tyrosine-protein kinase FLT3 (Homo sapiens, UniProt P36888); assay type: functional;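 also: FLT3 was tested as one member of a kinome-wide kinase panel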
[10] = biological target: Macrophage-stimulating protein receptor (Homo sapiens, UniProt Q04912); experiment: Navigating the Kinome. Panel member name: MST1R; assay type: functional
[11] = biological target: Fibroblast growth factor receptor 1 (Homo sapiens, UniProt P11362); assay type: functional
[12] = biological target: Inhibitor of nuclear factor kappa-B kinase subunit epsilon (Homo sapiens, UniProt Q14164); experiment: Navigating the Kinome. Panel member name: IKBKE; assay type: functional
[13] = biological target: Serine/threonine-protein kinase TBK1 (Homo sapiens, UniProt Q9UHD2); experiment: Navigating the Kinome. Panel member name: TBK1; assay type: functional
[14] = biological target: Glycogen synthase kinase-3 beta (Homo sapiens, UniProt P49841); assay type: functional;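 also: value comes from a broad kinome profiling panel, with GSK3B as the panel member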
[15] = biological target: T1, Heat shock protein HSP 90-alpha; experiment: Luminescence-based dose response biochemical high throughput screening assay for inhibitors of the Heat Shock Protein 90 (HSP90). [Related pubchem assays: 1831 (Summary AID.), 1846 (Confirmation screen.), 1789 (Primary screen.)]
[16] = biological target: Beta-galactosidase (Escherichia coli, UniProt Q8VNN2); experiment: detection-enzyme interference by beta-gal modulators – biochemical, E. coli enzyme, set 3, artefact control for CCR6 antagonist project, dose response (AID 504712); assay type: functional
[17] = HEK-293T viability loss after treatment – luminescence, T-cell screen hits, cytotoxicity control for TCR NF-kB inhibitor project, dose response (AID 489026); assay type: functional, cell-based;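 also: cells exposed to compound about 14 hours before the viability readout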
[18] = system: BJ; experiment: cells; assay type: functional, cell-based; settings: Homo sapiens
[19] = DRD fibroblast viability loss – cell-based, non-viral oncogenic, luminescence, dose response (AID 1934); assay type: functional; settings: Homo sapiens
[20] = biological target: MAP kinase-activated protein kinase 2 (Homo sapiens, UniProt P49137); assay type: functional;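 also: measured as one member of a kinome-wide kinase panel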
[21] = biological target: Serine/threonine-protein kinase MRCK alpha (Homo sapiens, UniProt Q5VT25); assay type: functional
[22] = biological target: Calcium/calmodulin-dependent protein kinase type II subunit gamma (Homo sapiens, UniProt Q13555); assay type: functional
[23] = biological target: Tyrosine-protein kinase BTK (Homo sapiens, UniProt Q06187); assay type: functional
[24] = biological target: Tyrosine-protein kinase Fer (Homo sapiens, UniProt P16591); assay type: functional;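 also: FER tested as one member of a kinome panel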
[25] = biological target: Ephrin type-A receptor 2 (Homo sapiens, UniProt P29317); assay type: functional;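 also: EPHA2 tested as one member of a kinome-wide kinase panel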
[26] = biological target: Protein kinase C delta type (Homo sapiens, UniProt Q05655); assay type: functional
[27] = biological target: Mitogen-activated protein kinase kinase kinase kinase 5 (Homo sapiens, UniProt Q9Y4K4); assay type: functional;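 also: measured as one member of a kinome-spanning kinase panel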
[28] = biological target: Protein kinase C iota type (Homo sapiens, UniProt P41743); assay type: functional;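 also: measured within a kinome-wide kinase panel, PRKCI as panel member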
[29] = biological target: Serine/threonine-protein kinase Nek4 (Homo sapiens, UniProt P51957); assay type: functional
[30] = biological target: Serine/threonine-protein kinase 17A (Homo sapiens, UniProt Q9UEE5); assay type: functional
[31] = biological target: MAP kinase-activated protein kinase 5 (Homo sapiens, UniProt Q8IW41); assay type: functional;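 also: measured as one member of a kinome panel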
[32] = biological target: Calcium/calmodulin-dependent protein kinase type 1 (Homo sapiens, UniProt Q14012); assay type: functional
[33] = biological target: Interleukin-1 receptor-associated kinase 4 (Homo sapiens, UniProt Q9NWZ3); assay type: functional
Interleukin-1 receptor-associated kinase 4, sequence (Q9NWZ3 whole entry): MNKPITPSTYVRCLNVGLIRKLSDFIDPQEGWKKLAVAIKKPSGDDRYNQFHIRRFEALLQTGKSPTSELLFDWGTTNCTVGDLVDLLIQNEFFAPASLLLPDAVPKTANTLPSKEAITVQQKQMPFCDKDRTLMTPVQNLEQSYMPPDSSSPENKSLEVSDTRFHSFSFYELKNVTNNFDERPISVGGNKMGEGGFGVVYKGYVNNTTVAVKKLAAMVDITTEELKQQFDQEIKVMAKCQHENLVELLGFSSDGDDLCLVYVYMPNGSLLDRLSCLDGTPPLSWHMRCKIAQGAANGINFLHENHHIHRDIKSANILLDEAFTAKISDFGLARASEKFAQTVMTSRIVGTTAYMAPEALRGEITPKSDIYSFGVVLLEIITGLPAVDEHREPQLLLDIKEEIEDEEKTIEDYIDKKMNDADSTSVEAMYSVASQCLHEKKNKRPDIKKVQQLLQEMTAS

Ephrin type-A receptor 2, sequence (P29317 whole entry): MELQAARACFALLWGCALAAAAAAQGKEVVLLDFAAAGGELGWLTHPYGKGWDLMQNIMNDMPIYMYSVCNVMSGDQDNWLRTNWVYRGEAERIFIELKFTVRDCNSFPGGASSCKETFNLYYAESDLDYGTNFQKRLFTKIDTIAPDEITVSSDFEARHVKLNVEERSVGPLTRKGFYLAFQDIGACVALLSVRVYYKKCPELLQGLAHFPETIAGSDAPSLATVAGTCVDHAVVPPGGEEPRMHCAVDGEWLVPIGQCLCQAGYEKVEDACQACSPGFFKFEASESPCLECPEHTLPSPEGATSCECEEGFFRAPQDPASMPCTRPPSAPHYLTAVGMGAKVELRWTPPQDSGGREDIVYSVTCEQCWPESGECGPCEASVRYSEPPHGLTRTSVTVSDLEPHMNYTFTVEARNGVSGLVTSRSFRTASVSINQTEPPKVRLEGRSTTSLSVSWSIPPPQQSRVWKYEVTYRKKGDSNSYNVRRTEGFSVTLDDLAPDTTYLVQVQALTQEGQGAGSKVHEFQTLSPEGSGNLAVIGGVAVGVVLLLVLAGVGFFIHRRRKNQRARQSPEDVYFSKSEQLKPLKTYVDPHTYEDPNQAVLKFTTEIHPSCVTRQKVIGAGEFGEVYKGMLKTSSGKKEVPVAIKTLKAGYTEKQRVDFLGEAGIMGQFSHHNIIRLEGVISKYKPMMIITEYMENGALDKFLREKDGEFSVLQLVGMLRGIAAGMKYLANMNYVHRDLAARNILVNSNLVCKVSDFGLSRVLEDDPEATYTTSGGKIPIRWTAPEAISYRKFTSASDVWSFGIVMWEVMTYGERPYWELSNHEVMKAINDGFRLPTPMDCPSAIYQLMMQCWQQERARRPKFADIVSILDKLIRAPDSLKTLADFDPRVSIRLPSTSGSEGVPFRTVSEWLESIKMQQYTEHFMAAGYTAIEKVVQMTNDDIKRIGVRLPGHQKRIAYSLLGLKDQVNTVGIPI
Macrophage-stimulating protein receptor, sequence (Q04912 25-304 limits assumed): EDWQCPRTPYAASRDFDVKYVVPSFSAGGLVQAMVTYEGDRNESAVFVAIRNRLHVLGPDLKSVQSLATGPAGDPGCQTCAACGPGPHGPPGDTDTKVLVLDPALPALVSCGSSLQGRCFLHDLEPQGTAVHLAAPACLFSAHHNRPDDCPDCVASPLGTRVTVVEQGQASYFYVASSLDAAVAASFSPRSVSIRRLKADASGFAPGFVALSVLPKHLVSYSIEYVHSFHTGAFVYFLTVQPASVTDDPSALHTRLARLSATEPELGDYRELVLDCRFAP
Macrophage-stimulating protein receptor, sequence (Q04912 310-1400 limits assumed): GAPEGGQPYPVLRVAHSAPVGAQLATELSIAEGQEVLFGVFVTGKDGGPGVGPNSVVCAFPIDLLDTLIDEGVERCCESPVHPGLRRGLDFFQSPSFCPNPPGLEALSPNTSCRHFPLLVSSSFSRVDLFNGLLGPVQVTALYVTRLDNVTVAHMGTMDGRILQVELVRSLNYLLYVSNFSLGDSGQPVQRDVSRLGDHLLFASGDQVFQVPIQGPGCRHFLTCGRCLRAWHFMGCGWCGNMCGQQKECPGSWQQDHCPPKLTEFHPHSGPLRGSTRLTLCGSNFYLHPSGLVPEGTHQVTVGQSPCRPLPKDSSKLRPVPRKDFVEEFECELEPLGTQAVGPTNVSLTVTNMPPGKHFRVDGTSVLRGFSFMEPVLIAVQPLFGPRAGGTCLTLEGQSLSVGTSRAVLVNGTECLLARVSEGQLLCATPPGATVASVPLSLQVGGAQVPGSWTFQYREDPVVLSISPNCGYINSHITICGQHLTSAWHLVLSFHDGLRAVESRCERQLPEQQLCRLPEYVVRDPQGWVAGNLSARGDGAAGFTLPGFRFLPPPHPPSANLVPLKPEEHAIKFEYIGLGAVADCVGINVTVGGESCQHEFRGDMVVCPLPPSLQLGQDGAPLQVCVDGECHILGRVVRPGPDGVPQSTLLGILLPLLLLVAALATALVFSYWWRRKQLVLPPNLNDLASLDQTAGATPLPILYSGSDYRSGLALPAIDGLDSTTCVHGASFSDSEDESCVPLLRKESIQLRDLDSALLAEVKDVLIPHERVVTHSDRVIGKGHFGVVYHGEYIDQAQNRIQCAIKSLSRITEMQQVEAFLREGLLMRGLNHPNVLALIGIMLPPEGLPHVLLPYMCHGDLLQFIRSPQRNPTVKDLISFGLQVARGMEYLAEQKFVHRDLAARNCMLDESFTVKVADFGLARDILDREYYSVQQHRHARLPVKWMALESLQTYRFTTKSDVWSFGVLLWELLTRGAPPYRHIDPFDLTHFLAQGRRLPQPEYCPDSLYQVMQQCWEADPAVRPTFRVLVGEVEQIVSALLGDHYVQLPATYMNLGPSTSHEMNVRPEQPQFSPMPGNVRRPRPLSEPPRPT
Serine/threonine-protein kinase 17A, sequence (Q9UEE5 whole entry): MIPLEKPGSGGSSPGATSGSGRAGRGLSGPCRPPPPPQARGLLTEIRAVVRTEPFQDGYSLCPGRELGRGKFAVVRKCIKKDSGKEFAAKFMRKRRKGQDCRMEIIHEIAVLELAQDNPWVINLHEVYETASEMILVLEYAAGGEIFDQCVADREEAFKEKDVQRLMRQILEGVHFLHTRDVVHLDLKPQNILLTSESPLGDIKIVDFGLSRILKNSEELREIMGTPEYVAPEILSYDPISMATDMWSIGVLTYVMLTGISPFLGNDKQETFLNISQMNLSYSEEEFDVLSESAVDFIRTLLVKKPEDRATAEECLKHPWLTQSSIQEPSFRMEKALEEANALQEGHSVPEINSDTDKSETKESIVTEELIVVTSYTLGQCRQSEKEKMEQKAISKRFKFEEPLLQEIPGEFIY
Calcium/calmodulin-dependent protein kinase type 1, sequence (Q14012 whole entry): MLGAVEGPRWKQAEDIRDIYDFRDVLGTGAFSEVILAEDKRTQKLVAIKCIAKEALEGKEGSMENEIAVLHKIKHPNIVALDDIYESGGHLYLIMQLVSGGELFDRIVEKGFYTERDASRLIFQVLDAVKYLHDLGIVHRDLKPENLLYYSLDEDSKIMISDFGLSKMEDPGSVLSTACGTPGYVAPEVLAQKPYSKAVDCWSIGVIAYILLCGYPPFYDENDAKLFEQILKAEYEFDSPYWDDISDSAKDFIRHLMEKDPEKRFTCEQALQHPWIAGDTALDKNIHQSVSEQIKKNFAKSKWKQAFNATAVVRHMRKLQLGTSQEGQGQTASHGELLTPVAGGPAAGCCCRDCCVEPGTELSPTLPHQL
Fibroblast growth factor receptor 1, sequence (P11362 whole entry): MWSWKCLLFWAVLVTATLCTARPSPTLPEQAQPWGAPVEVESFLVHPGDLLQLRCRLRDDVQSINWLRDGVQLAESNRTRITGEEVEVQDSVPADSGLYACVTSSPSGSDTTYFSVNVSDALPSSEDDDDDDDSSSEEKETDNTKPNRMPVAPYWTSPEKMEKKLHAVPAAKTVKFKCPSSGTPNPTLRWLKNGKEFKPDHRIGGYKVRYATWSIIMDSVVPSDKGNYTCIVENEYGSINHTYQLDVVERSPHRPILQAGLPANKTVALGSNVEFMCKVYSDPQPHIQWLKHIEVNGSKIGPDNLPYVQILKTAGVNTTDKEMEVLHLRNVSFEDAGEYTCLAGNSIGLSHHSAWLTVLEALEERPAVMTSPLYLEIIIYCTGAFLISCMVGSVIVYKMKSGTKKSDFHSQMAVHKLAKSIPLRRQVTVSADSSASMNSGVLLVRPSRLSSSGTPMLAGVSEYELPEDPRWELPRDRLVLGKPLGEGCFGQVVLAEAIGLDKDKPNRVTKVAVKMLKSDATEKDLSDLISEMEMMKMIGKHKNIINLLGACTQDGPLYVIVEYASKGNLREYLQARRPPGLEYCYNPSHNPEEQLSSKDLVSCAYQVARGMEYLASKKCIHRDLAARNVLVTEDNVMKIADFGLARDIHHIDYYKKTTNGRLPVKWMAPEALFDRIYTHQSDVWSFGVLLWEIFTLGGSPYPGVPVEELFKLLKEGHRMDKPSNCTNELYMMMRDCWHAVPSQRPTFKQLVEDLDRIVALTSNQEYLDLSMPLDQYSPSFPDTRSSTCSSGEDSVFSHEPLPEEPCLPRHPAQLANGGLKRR
Glyceraldehyde-3-phosphate dehydrogenase, sequence (P04406 whole entry): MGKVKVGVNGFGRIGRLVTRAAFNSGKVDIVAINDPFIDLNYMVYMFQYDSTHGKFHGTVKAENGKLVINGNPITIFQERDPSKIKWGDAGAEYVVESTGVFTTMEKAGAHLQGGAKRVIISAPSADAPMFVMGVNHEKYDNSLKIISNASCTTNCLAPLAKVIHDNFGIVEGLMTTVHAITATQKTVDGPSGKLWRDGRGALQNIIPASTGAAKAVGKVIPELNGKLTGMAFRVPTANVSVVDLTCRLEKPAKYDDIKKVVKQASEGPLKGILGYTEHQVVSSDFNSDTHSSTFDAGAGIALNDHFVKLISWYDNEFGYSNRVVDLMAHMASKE
Eukaryotic translation initiation factor 4E, sequence (P63073 whole entry, the tested form may be a part): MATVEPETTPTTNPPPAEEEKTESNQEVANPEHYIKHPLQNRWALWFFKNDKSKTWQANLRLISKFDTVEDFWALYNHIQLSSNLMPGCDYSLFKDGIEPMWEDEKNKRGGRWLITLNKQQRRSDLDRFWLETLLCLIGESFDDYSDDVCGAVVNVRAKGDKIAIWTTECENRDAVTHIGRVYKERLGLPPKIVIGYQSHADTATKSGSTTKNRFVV

SMILES: O=C1/C(=C\c2cccc(O)c2O)SC(=S)N1Cc1ccccc1
- AC50 [1]: 13.4 µM (active)

SMILES: COc1cccc2c1NC(C(=O)O)C1CC=CC21 (stereo not drawn)
- IC50 [2]: > 100 µM (inactive)
- IC50 [3]: 12.8 µM (active)
- EC50 [4]: 19.5 µM (inconclusive)
- IC50 [5]: 88.9 µM (active)
- IC50 [6]: > 10 µM (not active)
- IC50 [7]: 19.1 µM (active)

- Ki [8]: 0.794 µM (active)
- Ki [9]: 0.398 µM (active)
- Ki [10]: 1.58 µM (active)
- Ki [11]: 0.501 µM (active)
- Ki [12]: 2 µM (active)
- Ki [13]: 1.58 µM (active)
- Ki [14]: 0.398 µM (active)
SMILES: COc1c(-c2nc3ccccc3[nH]2)c(O)cc2oc(C)cc(=O)c12

SMILES: CCc1ccc(S(=O)(=O)/N=C2\C=C(Nc3ccc(O)cc3)C(=O)c3ccccc32)cc1
- IC50 [15]: 1.28 µM (active)
- IC50 [16]: 41.3 µM (inactive)
- IC50 [17]: 3.96 µM (active)
- EC50 [18]: 2.96 µM (active)
- EC50 [19]: 3.33 µM (active)

- Ki [20]: > 7.94 µM (inactive)
- Ki [21]: > 10 µM (inactive)
- Ki [22]: 3.98 µM (active)
- Ki [23]: > 6.31 µM (inactive)
- Ki [24]: 0.501 µM (active)
- Ki [25]: 2.51 µM (active)
- Ki [26]: > 7.94 µM (inactive)
- Ki [27]: 0.316 µM (active)
- Ki [28]: > 5.01 µM (inactive)
- Ki [29]: > 6.31 µM (inactive)
- Ki [30]: > 3.98 µM (inactive)
- Ki [31]: > 1.58 µM (inactive)
- Ki [32]: 6.31 µM (active)
- Ki [33]: 2.51 µM (active)
SMILES: Cc1ccc(F)c(NC(=O)Nc2ccc(-c3cccc4[nH]nc(N)c34)cc2)c1 [LINIFANIB]
